From patent US8119681B2, “2-[1-phenyl-5-hydroxy or methoxy-4alpha-methyl-hexahydrocyclopenta [ƒ]indazole-5-YL]ethyl phenyl derivatives as glucocorticoid receptor ligands” (Merck Sharp & Dohme Corp., priority 2006, dated 2012)
Where two headings read alike, the source gives them in different places.

Target: T1, human GR (Homo sapiens, UniProt P04150)
T1 sequence (P04150 1-777): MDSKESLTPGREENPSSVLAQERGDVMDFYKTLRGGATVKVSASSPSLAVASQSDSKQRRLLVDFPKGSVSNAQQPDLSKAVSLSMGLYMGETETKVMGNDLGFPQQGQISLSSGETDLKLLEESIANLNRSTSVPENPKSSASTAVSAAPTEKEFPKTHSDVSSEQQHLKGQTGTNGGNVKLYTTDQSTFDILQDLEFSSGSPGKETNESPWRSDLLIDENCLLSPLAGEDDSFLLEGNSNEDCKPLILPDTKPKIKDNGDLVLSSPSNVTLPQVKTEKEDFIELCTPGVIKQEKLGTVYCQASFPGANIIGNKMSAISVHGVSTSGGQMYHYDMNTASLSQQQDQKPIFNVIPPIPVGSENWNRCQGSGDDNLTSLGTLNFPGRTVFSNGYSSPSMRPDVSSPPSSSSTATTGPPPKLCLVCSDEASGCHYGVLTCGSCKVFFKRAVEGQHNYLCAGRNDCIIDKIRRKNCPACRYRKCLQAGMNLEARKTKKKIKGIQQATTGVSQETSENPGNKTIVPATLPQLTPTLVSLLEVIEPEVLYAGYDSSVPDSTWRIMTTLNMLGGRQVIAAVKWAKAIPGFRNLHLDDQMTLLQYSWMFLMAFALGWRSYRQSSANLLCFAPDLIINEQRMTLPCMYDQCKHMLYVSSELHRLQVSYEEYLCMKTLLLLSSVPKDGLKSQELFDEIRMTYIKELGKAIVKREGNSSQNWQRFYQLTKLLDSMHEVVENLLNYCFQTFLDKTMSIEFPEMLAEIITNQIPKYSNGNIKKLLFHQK
Test: Trans-Activation Modulation of Glucocorticoid Receptor (GRAMMER), MMTV-LUC reporter gene
Type: cell-based
Set-up: endogenous in cells
Conditions: for Emax: A549; for EC50: A549 cells, IP = inflection point
Source text: Trans-Activation Modulation of Glucocorticoid Receptor (GRAMMER)
This assay assesses the ability of test compounds to control transcription from the MMTV-LUC reporter gene in lung adenocarcinoma A549 cells or HeLa cells, a human […] cell line that naturally expresses the human GR. The assay measures induction of a modified MMTV LTR/promoter linked to the LUC reporter gene.
The routine transient assay consists of plating 7,000-25,000 cells/well of a white, clear-bottom 96-well plate. Alternatively, 384-well plates can be used at a cell concentration of 10,000/well. The media that the cells are plated in is “exponential growth medium” which consists of phenol red-free RPMI1640 containing 10% FBS, 4 mM L-glutamine, 20 mM HEPES, 10 ug/mL human insulin, and 20 ug/mL gentamicin. Incubator conditions are 37° C. and 5% CO2. The transfection is done in batch mode. The cells are trypsinized and counted to the right cell number in the proper amount of fresh media. It is then gently mixed with the FuGene6/DNA mix and plated onto the 96 or 384-well plate, all the wells receive 100 uL or 40 uL, respectively, of medium+lipid/DNA complex then incubated 37° C. overnight. The transfection cocktail consists of serum-free OptiMEM, FuGene6 reagent and DNA. The manufacturer's (Roche Biochemical) protocol for cocktail setup is as follows: The lipid to DNA ratio is approximately 2.5:1 and the incubation time is 20 min at room temperature. Sixteen to 24 hours after transfection, the cells are treated with dexamethasone to a final concentration of 10 nM as well as the compound of interest, such that final DMSO (vehicle) concentration is equal to or less than 1%. Each plate also contains samples that are treated with 10 nM dexamethasone alone, which is used as the 100% activity control. The cells are exposed to the compounds for 24 hours. After 24 hours, the cells are lysed by a Promega cell culture lysis buffer for approximately 30 min and then the luciferase activity in the extracts is assayed in the 96-well format luminometer. In 384-well format, Steady-Glo (Promega) or Steady-Lite (PerkinElmer) can be used by adding an equal volume of reagent to the media present in each well. Activity induced by 10 nM dexamethasone alone is set at 100% activity. Antagonist activity is calculated by determining the decrease in dexamethasone-induced activity in response to compound treatment relative to samples that were treated with dexamethasone alone. […] This transactivation assay can be performed in an agonist and antagonist mode to identify these different activities. […]

[1] = read-out: Transactivation A549 Cells GRAMMER Emax (%)
[2] = Table 1, read-out: Transactivation A549 Cells GRAMMER IP
[3] = read-out: Transactiviation A549 Cells GRAMMER Emax (%)
[4] = Table 2, read-out: Transactiviation A549 Cells GRAMMER IP

Emax [1] | EC50 [2] | Emax [3] | EC50 [4] | SMILES
29% | 0.187 µM | – | – | C[C@]12Cc3cnn(-c4ccc(F)cc4)c3C=C1CC[C@@]2(O)CCc1ccccc1C(F)C(N)=O (single isomer, unassigned) [Example 198]
43% | 0.236 µM | – | – | C[C@]12Cc3cnn(-c4ccc(F)cc4)c3C=C1CC[C@@]2(O)CCc1ccccc1NS(=O)(=O)C1CC1 [Example 15, N-(2-{2-[(4αS,5R)-1-(4-fluorophenyl)-5-hydroxy-4α-methyl-1,4,4α,5,6,7-hexahydrocyclopenta[f]indazol-5-yl]ethyl}phenyl)cyclopropanesulfonamide]
– | – | 85% | 0.109 µM | C[C@]12Cc3cnn(-c4ccc(F)cc4)c3C=C1CCC[C@@H]2[C@@H](O)Cc1ccccc1 [Example 22 WO 03/086294 A2, reference compound]
24% | 0.039 µM | – | – | COC(=O)C1(NC(=O)c2ccccc2CC[C@]2(O)CCC3=Cc4c(cnn4-c4ccc(F)cc4)C[C@@]32C)CC1 [Example 26, methyl 1-[(2-{2-[(4αS,5R)-1-(4-fluorophenyl)-5-hydroxy-4α-methyl-1,4,4α,5,6,7-hexahydrocyclopenta[f]indazol-5-yl]ethyl}benzoyl)amino]cyclopropanecarboxylate]

Further lines, the compound ahead of its results:

SMILES | Emax [1] | EC50 [2] | Emax [3] | EC50 [4]
CC(O)(C(N)=O)c1ccccc1CC[C@]1(O)CCC2=Cc3c(cnn3-c3ccc(F)cc3)C[C@@]21C (single isomer, unassigned) [Example 150] | 38% | 0.264 µM | – | –
CC(C(N)=O)c1ccccc1CC[C@]1(O)CCC2=Cc3c(cnn3-c3ccc(F)cc3)C[C@@]21C (single isomer, unassigned) [Example 196] | 20% | 0.253 µM | – | –
C[C@]12Cc3cnn(-c4ccc(F)cc4)c3C=C1CC[C@@]2(O)CCc1ccccc1 [Example 2 WO 2004/075840 A2, reference compound] | – | – | 73% | 0.23 µM
CCNC(=O)c1ccccc1CC[C@]1(O)CCC2=Cc3c(cnn3-c3ccc(F)cc3)C[C@@]21C [Example 2, N-ethyl-2-{2-[(4αS,5R)-1-(4-fluorophenyl)-5-hydroxy-4α-methyl-1,4,4α,5,6,7-hexahydrocyclopenta[f]indazol-5-yl]ethyl}benzamide] | 51% | 0.039 µM | – | –
C[C@]12Cc3cnn(-c4ccc(F)cc4)c3C=C1CC[C@@]2(O)CCc1ccccc1CNS(=O)(=O)C1CC1 [Example 5, N-(2-{2-[(4αS,5R)-1-(4-fluorophenyl)-5-hydroxy-4α-methyl-1,4,4α,5,6,7-hexahydrocyclopenta[f]indazol-5-yl]ethyl}benzyl)cyclopropanesulfonamide] | 40% | 0.138 µM | – | –
C[C@]12Cc3cnn(-c4ccc(F)cc4)c3C=C1CC[C@@]2(O)CCc1ccccc1N1CCC1=O [Example 11, 1-(2-{2-[(4αS,5R)-1-(4-fluorophenyl)-5-hydroxy-4α-methyl-1,4,4α,5,6,7-hexahydrocyclopenta[f]indazol-5-yl]ethyl}phenyl)azetidin-2-one] | 39% | 0.29 µM | – | –
CC(=O)Nc1ccccc1CC[C@]1(O)CCC2=Cc3c(cnn3-c3ccc(F)cc3)C[C@@]21C [Example 14, N-(2-{2-[(4αS,5R)-1-(4-fluorophenyl)-5-hydroxy-4α-methyl-1,4,4α,5,6,7-hexahydrocyclopenta[f]indazol-5-yl]ethyl}phenyl)acetamide] | 55% | 0.175 µM | – | –
C[C@]12Cc3cnn(-c4ccc(F)cc4)c3C=C1CC[C@@]2(O)CCc1ccccc1S(C)(=O)=O [Example 19, (4αS,5R)-1-(4-fluorophenyl)-4α-methyl-5-{2-[2-(methylsulfonyl)phenyl]ethyl}-1,4,4α,5,6,7-hexahydrocyclopenta[f]indazol-5-ol] | 46% | 0.127 µM | – | –
CNC(=O)Cc1ccccc1CC[C@]1(O)CCC2=Cc3c(cnn3-c3ccc(F)cc3)C[C@@]21C [Example 23, 2-(2-{2-[(4αS,5R)-1-(4-fluorophenyl)-5-hydroxy-4α-methyl-1,4,4α,5,6,7-hexahydrocyclopenta[f]indazol-5-yl]ethyl}phenyl)-N-methylacetamide] | 36% | 0.268 µM | – | –
